Data as given in ChEMBL document CHEMBL1201862, “PubChem BioAssay data set” (2004).
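How tested: cells in 96-well plates exposed to compound for 48 hours at five concentrations. GI50 marks 50% less growth.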 Active and inactive are the calls of the source. Cut-off read from the data, not from the text of the source: active = GI50 up to about 1.1 µM and inactive = higher.

What was measured:
Assay in all cases: DTP human tumour cell line panel, 48 h
[1] = tested on: U-251
[2] = tested on: M14
[3] = tested on: TK-10
[4] = tested on: CCRF-CEM
[5] = tested on: A549
[6] = tested on: OVCAR-3
[7] = tested on: NCI-H23
[8] = tested on: Malme-3M
[9] = tested on: OVCAR-8
[10] = tested on: NCI-H226
[11] = tested on: SR
[12] = tested on: LOX IMVI
[13] = tested on: HL-60
[14] = tested on: HCT-116
[15] = tested on: SF-539
[16] = tested on: K562
[17] = tested on: SF-268
[18] = tested on: SK-MEL-5
[19] = tested on: HCC 2998
[20] = tested on: UACC-62

Measured: GI50

COc1cc(Cc2ccc3c(c2C#N)N(C)c2ccccc2S3)cc(OC)c1OC
inactive: [1] 27.2 µM | [2] > 100 µM | [3] > 100 µM | [4] 39.3 µM | [5] 9.4 µM | [6] 18.7 µM | [7] 4.14 µM | [8] 34.3 µM | [9] 19.8 µM | [10] 62.4 µM | [11] 6.14 µM | [12] 8.15 µM | [13] 13.7 µM | [14] 13.9 µM | [15] 17.8 µM | [16] 4.39 µM | [17] > 100 µM

CCc1ccccc1NC(=O)C1=C(C)NC(C)=C(C(=O)Nc2ccccc2CC)C1c1cccc([N+](=O)[O-])c1
inactive: [1] 39.4 µM | [2] 29 µM | [3] 41.6 µM | [4] 12.1 µM | [5] 21.5 µM | [6] 52 µM | [7] 36.6 µM | [18] 27.7 µM | [8] 35.9 µM | [19] 11.7 µM | [9] 44.7 µM | [10] 29.8 µM | [12] 87.9 µM | [13] 23.2 µM | [15] 43.9 µM | [16] 29.4 µM | [17] 43 µM

Cc1cc(NS(=O)(=O)c2ccc(NC(=O)c3cccc4c(Nc5ccc(S(N)(=O)=O)cc5)c5ccccc5nc34)cc2)no1
inactive: [1] 87.7 µM | [2] > 100 µM | [3] > 100 µM | [4] 85.9 µM | [20] > 100 µM | [6] 76.2 µM | [7] > 100 µM | [8] > 100 µM | [19] > 100 µM | [11] 80.9 µM | [12] 70.3 µM | [13] > 100 µM | [14] > 100 µM | [15] 73.6 µM | [16] 98.2 µM | [17] > 100 µM

COc1cc([N+](=O)[O-])ccc1NC(=O)c1cccc([N+](=O)[O-])c1O
inactive: [1] 40.1 µM | [2] 45 µM | [4] 23.2 µM | [5] 21.8 µM | [20] 9.2 µM | [6] 29.4 µM | [7] 20.4 µM | [18] 6.46 µM | [8] 7.67 µM | [19] 19 µM | [9] 29 µM | [10] 38.7 µM | [11] 17.8 µM | [12] 22.2 µM | [13] 19.9 µM | [14] 26.4 µM | [15] 23.1 µM | [16] 20.8 µM | [17] 32.5 µM

Cc1cc2c(C)nn(Cc3ccc(Cl)cc3)c2c(C#N)c1C
inactive: [1] > 100 µM | [3] > 100 µM | [4] > 100 µM | [5] > 100 µM | [20] > 100 µM | [6] > 100 µM | [7] > 100 µM | [8] > 100 µM | [19] > 100 µM | [9] > 100 µM | [10] > 100 µM | [11] > 100 µM | [13] > 100 µM | [14] > 100 µM | [15] > 100 µM | [17] > 100 µM

C=C(c1ccccc1)c1cc2c(=O)[nH]ccc2n1C
inactive: [2] 29.2 µM | [3] 55.3 µM | [4] 31.3 µM | [5] 31.7 µM | [20] 28.5 µM | [6] 24.8 µM | [7] 30.1 µM | [18] 26 µM | [8] 30.1 µM | [19] 35 µM | [9] 34 µM | [12] 37.2 µM | [13] 16.3 µM | [16] 13.8 µM | [17] 33.3 µM

O=C1OC(c2ccc(O)c(F)c2)(c2ccc(O)c(F)c2)c2cccc3cccc1c23
inactive: [1] > 25 µM | [2] > 25 µM | [3] > 25 µM | [4] > 25 µM | [5] > 25 µM | [20] 17.5 µM | [6] 5.9 µM | [7] > 25 µM | [18] > 25 µM | [8] > 25 µM | [9] > 25 µM | [10] > 25 µM | [11] 8.04 µM | [12] > 25 µM | [13] 5.57 µM | [14] > 25 µM | [15] > 25 µM | [16] 14.8 µM | [17] > 25 µM

N#CCCOCN(CO)c1nc(N(CO)COCCC#N)nc(N(CO)COCCC#N)n1
inactive: [1] > 100 µM | [2] 21 µM | [3] 34 µM | [4] 23.6 µM | [5] 26.1 µM | [6] 25.7 µM | [7] 31.2 µM | [8] 24.9 µM | [9] 15.8 µM | [10] 22.7 µM | [11] 17.3 µM | [12] 31.8 µM | [13] 17.7 µM | [14] 25.7 µM | [15] 2.5 µM | [16] 25 µM | [17] 23.1 µM

COCCOCOc1ccc(OCc2ccccc2)cc1
inactive: [1] > 85.9 µM | [4] 36.6 µM | [5] > 100 µM | [20] > 100 µM | [6] > 100 µM | [7] > 71 µM | [18] 35 µM | [8] > 100 µM | [19] > 82.6 µM | [9] > 100 µM | [10] > 100 µM | [12] > 100 µM | [13] 22.5 µM | [14] > 100 µM | [15] > 100 µM | [16] 64.9 µM | [17] > 100 µM

CSc1nc(N)c2c(-c3ccccc3)c3c(nc2n1)CCCC3
inactive: [1] > 100 µM | [2] > 100 µM | [3] > 100 µM | [4] > 100 µM | [5] > 100 µM | [20] > 100 µM | [6] > 100 µM | [7] > 100 µM | [18] > 100 µM | [8] 82 µM | [9] 20.8 µM | [11] > 100 µM | [12] > 100 µM | [13] > 100 µM | [14] > 100 µM | [15] 13.4 µM | [16] > 100 µM | [17] > 10 µM

NC(=O)Oc1ccccc1 [CARBAMIC ACID PHENYL ESTER]
inactive: [1] > 100 µM | [2] > 100 µM | [3] > 100 µM | [4] > 100 µM | [5] > 100 µM | [6] > 100 µM | [7] > 100 µM | [18] > 100 µM | [19] > 100 µM | [9] > 100 µM | [10] > 100 µM | [11] > 100 µM | [12] > 100 µM | [13] > 100 µM | [14] > 100 µM | [16] > 100 µM | [17] > 100 µM

CC(=C/c1ccccc1)/C=C1/NC(=S)N(/C=C2\C(=O)Oc3ccccc3C2=O)C1=O
inactive: [1] 41.3 µM | [2] 54 µM | [3] 40.7 µM | [4] 33.8 µM | [5] 42.2 µM | [6] 38.3 µM | [7] 41.6 µM | [18] 25.6 µM | [19] 58.1 µM | [9] 52.4 µM | [10] 67.9 µM | [11] 38.1 µM | [12] 53.5 µM | [13] 25.8 µM | [14] 41.9 µM | [15] 96.6 µM | [16] 39.6 µM | [17] 53.6 µM

Cc1ccccc1-c1nc2c(C(=O)NCCN(C)C)cccc2[nH]1
inactive: [1] 34.5 µM | [4] 27 µM | [5] 39.4 µM | [20] 40.3 µM | [6] 65.6 µM | [7] 57.7 µM | [18] 21.7 µM | [8] 30.5 µM | [19] 40.3 µM | [9] 42.8 µM | [10] 16 µM | [12] 38.3 µM | [13] 26.5 µM | [14] 29.6 µM | [15] 41.4 µM | [16] 20.9 µM | [17] 50.7 µM

COc1ccc(-c2nnc(-c3ccncc3)o2)cc1
inactive: [1] > 100 µM | [2] > 100 µM | [3] > 100 µM | [4] > 100 µM | [5] > 100 µM | [20] > 100 µM | [6] > 100 µM | [7] > 100 µM | [18] > 100 µM | [8] > 100 µM | [9] > 100 µM | [10] > 100 µM | [11] > 100 µM | [12] > 100 µM | [13] > 100 µM | [14] > 100 µM | [15] > 100 µM | [16] > 100 µM | [17] > 100 µM

Cc1ccc(NC(=O)c2cccc([N+](=O)[O-])c2O)c(C)c1
inactive: [1] 24 µM | [2] 36.6 µM | [4] 17.9 µM | [5] 15.9 µM | [20] 4.03 µM | [6] 5.7 µM | [7] 23 µM | [8] 1.7 µM | [19] 40.4 µM | [9] 22.9 µM | [10] 17.1 µM | [11] 22.3 µM | [12] 11.9 µM | [13] 17.2 µM | [14] 28.6 µM | [15] 14.5 µM | [16] 21 µM | [17] 34.8 µM

CC(=O)ON1C(=O)c2cccc3cccc(c23)C1=O
inactive: [1] 14.8 µM | [2] 21.6 µM | [3] 31.7 µM | [4] 9.66 µM | [5] 23.2 µM | [20] 19.9 µM | [6] 19.5 µM | [7] 10.4 µM | [18] 13.2 µM | [8] 20 µM | [19] 31.6 µM | [9] 27.1 µM | [12] 14.2 µM | [13] 10.9 µM | [14] 6.93 µM | [15] 16.4 µM | [16] 20.1 µM | [17] 22.6 µM
